Measured values reported in ChEMBL document CHEMBL4406911, “Discovery of Amino-cyclobutarene-derived Indoleamine-2,3-dioxygenase 1 (IDO1) Inhibitors for Cancer Immunotherapy” (ACS Med Chem Lett, 2019).
Values belong to the compound of their own block, whether it stands above or below them.

Tests used:
[1] = target: T1, Indoleamine 2,3-dioxygenase 1 (Homo sapiens, UniProt P14902); assay: Inhibition of recombinant His-tagged IDO1 (unknown origin) expressed in Escherichia coli preincubated for 30 mins followed by substrate tryptophan addition and measured after 60 mins by fluorescence based assay
T1 sequence (P14902 whole entry): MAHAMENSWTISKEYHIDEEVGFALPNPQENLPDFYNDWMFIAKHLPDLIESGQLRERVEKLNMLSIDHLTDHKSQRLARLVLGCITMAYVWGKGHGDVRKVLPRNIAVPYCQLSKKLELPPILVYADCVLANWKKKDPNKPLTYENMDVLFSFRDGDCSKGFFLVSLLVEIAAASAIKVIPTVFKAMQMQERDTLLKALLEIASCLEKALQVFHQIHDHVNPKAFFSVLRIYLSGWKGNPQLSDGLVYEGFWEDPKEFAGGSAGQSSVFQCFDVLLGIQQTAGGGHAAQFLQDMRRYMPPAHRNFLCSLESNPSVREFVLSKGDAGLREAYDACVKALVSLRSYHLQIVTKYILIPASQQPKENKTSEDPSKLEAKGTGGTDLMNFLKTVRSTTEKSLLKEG

[2] = target: T1, Indoleamine 2,3-dioxygenase 1; assay: Inhibition of IDO1 in human HeLa cells stimulated with IFNgamma using L-tryptophan as substrate incubated for 48 hrs by fluorescence based assay; type: cell-based
[3] = MRT in rat; type: ADME; conditions: in vivo
[4] = Intrinsic clearance in rat; type: ADME
[5] = Total clearance in rat; type: ADME; conditions: in vivo
[6] = Clearance in human Hepatocyte; type: ADME, cell-based; conditions: hepatocytes, read-out: CLH
[7] = Lipophilicity, log D of compound at pH 7 by HPLC analysis; type: physicochemical; conditions: buffer
CYP450 = CYP450 (Homo sapiens, UniProt P04798+P05177+P05181+P08684+P10632+P10635+P11509+P11712+P13584+P20813+P20815+P20853+P24462+P24903+P33260+P33261+P51589+P78329+P98187+Q02928+Q08477+Q16678+Q16696+Q5TCH4+Q6VVX0+Q7Z449+Q8TAV3+Q96SQ9+Q9HB55); assay: Inhibition of CYP450 (unknown origin); type: ADME, protein assay
EMT6 [8] = assay: Antitumor activity against mouse EMT6 cells xenografted in BALB/c mouse assessed as reduction in tumor volume at 100 mg/kg, po bid and measured for weekly twice relative to control; type: functional; set-up: scale not given: the % may be the effect or the level left
[9] = Chemical stability of compound in H2O2 assessed as parent compound remaining measured after 24 hrs; type: physicochemical; conditions: read-out: Stability
[10] = target: Tryptophan 2,3-dioxygenase (Homo sapiens, UniProt P48775); assay: Inhibition of TDO in human SW480 cells incubated for 48 hrs using L-tryptophan as substrate by fluorescence based assay; type: cell-based
Sequence of Tryptophan 2,3-dioxygenase (P48775 whole entry): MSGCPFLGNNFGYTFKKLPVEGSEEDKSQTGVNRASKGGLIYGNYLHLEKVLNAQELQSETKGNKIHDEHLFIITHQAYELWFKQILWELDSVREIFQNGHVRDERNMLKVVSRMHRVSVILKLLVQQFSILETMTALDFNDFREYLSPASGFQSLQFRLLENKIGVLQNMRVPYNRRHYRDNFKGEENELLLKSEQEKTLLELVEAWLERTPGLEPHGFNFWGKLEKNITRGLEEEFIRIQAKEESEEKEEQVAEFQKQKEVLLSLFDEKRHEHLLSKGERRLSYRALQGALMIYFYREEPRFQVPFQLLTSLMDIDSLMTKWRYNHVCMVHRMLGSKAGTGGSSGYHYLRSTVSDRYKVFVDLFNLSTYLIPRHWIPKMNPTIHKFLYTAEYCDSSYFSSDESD

[11] = Oral bioavailability in dog; type: ADME, organism-based, Canis lupus familiaris; conditions: in vivo
[12] = Unbound clearance in rat; type: ADME; conditions: in vivo
[13] = Unbound clearance in dog; type: ADME, Canis lupus familiaris; conditions: in vivo
[14] = target: Indoleamine 2,3-dioxygenase 1 (Mus musculus, UniProt P28776); assay: Inhibition of mouse IDO1 preincubated for 30 mins followed by substrate tryptophan addition and measured after 60 mins by fluorescence based assay
Sequence of Indoleamine 2,3-dioxygenase 1 (Mus musculus, UniProt P28776) (P28776 whole entry): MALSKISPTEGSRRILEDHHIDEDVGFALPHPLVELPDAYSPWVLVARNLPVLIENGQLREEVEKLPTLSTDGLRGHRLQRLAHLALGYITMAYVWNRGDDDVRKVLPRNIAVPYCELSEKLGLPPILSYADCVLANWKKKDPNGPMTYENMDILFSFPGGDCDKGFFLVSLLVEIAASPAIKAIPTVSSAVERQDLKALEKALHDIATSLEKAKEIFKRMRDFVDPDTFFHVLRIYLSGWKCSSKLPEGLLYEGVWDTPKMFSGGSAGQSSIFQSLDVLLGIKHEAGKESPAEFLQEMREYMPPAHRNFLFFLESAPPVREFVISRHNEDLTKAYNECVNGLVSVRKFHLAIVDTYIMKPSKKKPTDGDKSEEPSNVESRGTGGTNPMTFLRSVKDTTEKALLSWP

[15] = Half life in dog; type: ADME, Canis lupus familiaris; conditions: in vivo
EMT6 [16] = assay: Antitumor activity against mouse EMT6 cells xenografted in BALB/c mouse assessed as reduction in tumor volume at 100 mg/kg, po bid in presence of anti-PD1 at 5 mg/kg, […] and measured for weekly twice relative to control; type: functional; set-up: scale not given: the % may be the effect or the level left
[17] = Oral bioavailability in rat; type: ADME, organism-based; conditions: in vivo
[18] = Apparent permeability of compound; type: ADME; conditions: not told
[19] = Chemical stability of compound in 0.1 N NaOH assessed as parent compound remaining measured after 24 hrs; type: physicochemical; conditions: read-out: Stability
[20] = target: Indoleamine 2,3-dioxygenase 1 (Rattus norvegicus, UniProt Q9ERD9); assay: Inhibition of rat IDO1 preincubated for 30 mins followed by substrate tryptophan addition and measured after 60 mins by fluorescence based assay
Sequence of Indoleamine 2,3-dioxygenase 1 (Rattus norvegicus, UniProt Q9ERD9) (Q9ERD9 whole entry): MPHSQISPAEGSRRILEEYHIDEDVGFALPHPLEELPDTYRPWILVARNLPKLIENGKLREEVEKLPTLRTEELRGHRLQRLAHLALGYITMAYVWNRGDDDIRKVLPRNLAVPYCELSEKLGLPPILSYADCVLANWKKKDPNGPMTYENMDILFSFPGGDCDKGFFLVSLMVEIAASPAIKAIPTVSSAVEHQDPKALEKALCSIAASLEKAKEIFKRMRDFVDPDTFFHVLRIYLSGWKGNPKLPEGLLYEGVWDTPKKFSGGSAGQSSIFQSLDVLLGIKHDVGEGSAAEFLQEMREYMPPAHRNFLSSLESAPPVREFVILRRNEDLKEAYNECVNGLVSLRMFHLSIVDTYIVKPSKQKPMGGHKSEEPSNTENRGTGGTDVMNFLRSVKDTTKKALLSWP

[21] = Thermal stability of compound assessed as parent compound remaining measured after 3 hrs; type: physicochemical; conditions: read-out: Stability
[22] = Clearance in dog; type: ADME, Canis lupus familiaris; conditions: in vivo
[23] = Toxicity in rat assessed as adverse event; conditions: in vivo
[24] = Chemical stability of compound in 0.1 N HCl assessed as parent compound remaining measured after 24 hrs; type: physicochemical; conditions: read-out: Stability
[25] = Chemical stability of compound in 0.01 N NaOH assessed as parent compound remaining measured after 3 hrs; type: physicochemical; conditions: read-out: Stability
[26] = target: T2, Nuclear receptor subfamily 1 group I member 2 (Homo sapiens, UniProt O75469); assay: Activation of PXR (unknown origin)
T2 sequence (O75469 whole entry): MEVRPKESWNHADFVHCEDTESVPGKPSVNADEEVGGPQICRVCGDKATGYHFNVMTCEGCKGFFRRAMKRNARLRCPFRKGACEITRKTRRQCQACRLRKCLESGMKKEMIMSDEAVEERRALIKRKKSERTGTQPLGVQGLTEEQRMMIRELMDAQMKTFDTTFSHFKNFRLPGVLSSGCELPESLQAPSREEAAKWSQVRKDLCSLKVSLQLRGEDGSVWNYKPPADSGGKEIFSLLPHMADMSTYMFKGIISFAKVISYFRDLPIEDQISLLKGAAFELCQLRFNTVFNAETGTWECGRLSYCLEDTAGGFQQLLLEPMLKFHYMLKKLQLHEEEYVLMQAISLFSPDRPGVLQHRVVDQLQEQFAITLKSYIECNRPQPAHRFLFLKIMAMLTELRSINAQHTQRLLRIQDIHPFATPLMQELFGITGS

[27] = Chemical stability of compound in 0.01 N HCl assessed as parent compound remaining measured after 3 hrs; type: physicochemical; conditions: read-out: Stability
[28] = Chemical stability of compound in AIBN assessed as parent compound remaining measured after 24 hrs; type: physicochemical; conditions: read-out: Stability

Compound: Nc1nonc1/C(=N/O)NC1Cc2cc(F)ccc21 (stereo not given)
IC50 [1]: 735 nM
IC50 [2]: 150 nM

Compound: Nc1nonc1/C(=N/O)NC1Cc2ccccc2C1
IC50 [1]: 43800 nM

Compound: O=C(CSc1nonc1/C(=N/O)N[C@H]1Cc2ccc(F)cc21)NCCO
MRT [3]: 0.8 h
CLint scaled [4]: 2500 mL/min/kg
clearance [5]: 42 mL/min/kg
logD [7]: 2
CLint scaled [6]: 108 mL/min/kg

Compound: Nc1nonc1/C(=N/O)N[C@H]1Cc2ccc(F)cc21
MRT [3]: 0.4 h
CLint scaled [4]: 7380 mL/min/kg
clearance [5]: 60 mL/min/kg
logD [7]: 2.7

Compound: NS(=O)(=O)NCCNc1nonc1/C(=N/O)N[C@H]1Cc2ccc(F)cc21
MRT [3]: 2 h
CLint scaled [4]: 463 mL/min/kg
clearance [5]: 12 mL/min/kg
logD [7]: 2.4
CLint scaled [6]: 462 mL/min/kg

Compound: NS(=O)(=O)NCCSc1nonc1/C(=N/O)N[C@H]1Cc2ccc(F)cc21
MRT [3]: 2.5 h
CLint scaled [4]: 977 mL/min/kg
clearance [5]: 14 mL/min/kg
logD [7]: 2.45
CLint scaled [6]: 616 mL/min/kg

Compound: Nc1nonc1/C(=N/O)NC1Cc2cc(F)c(F)cc21 (stereo not given)
IC50 [1]: 392 nM
IC50 [2]: 75 nM

Further lines, with some results ahead:

MRT [3]: 1.7 h
CLint scaled [4]: 499 mL/min/kg
clearance [5]: 17 mL/min/kg
CLint scaled [6]: 523 mL/min/kg
Compound: NC(=O)CNc1nonc1/C(=N/O)N[C@H]1Cc2ccc(F)cc21

IC50 [1]: 2750 nM
Compound: Nc1nonc1/C(=N/O)NC1CCCc2ccccc21 (stereo not given)

MRT [3]: 2.9 h
IC50 (CYP450): > 50000 nM
remaining at 24 h [9]: 97%
CLint scaled [4]: 112 mL/min/kg
IC50 [10]: > 10000 nM
bioavailability [11]: 67%
CL free [12]: 319 mL/min/kg
CL free [13]: 88 mL/min/kg
IC50 [14]: 28 nM
half-life [15]: 6 h
clearance [5]: 15 mL/min/kg
bioavailability [17]: 63%
Papp [18]: 25 ×10⁻⁶ cm/s
remaining at 24 h [19]: 81.5%
IC50 [20]: 59 nM
logD [7]: 1.9 to 2
remaining at 3 h [21]: 88.4%
clearance [22]: 6 mL/min/kg
remaining at 24 h [24]: 96.2%
remaining at 3 h [25]: 97.4%
EC50 [26]: > 30000 nM
remaining at 3 h [27]: 98.1%
remaining at 24 h [28]: 77.1%
CLint scaled [6]: 48 mL/min/kg
Compound: O=C(CNc1nonc1/C(=N/O)N[C@H]1Cc2ccc(F)cc21)NCCO
Activity (EMT6 [8]): 15%
Activity (EMT6 [16]): 79%
Activity [23]: Non-Toxic

MRT [3]: 0.4 h
CLint scaled [4]: 3550 mL/min/kg
clearance [5]: 51 mL/min/kg
CLint scaled [6]: 863 mL/min/kg
Compound: CC(=O)NCCNc1nonc1/C(=N/O)N[C@H]1Cc2ccc(F)cc21

MRT [3]: 1 h
CLint scaled [4]: 1880 mL/min/kg
clearance [5]: 29 mL/min/kg
logD [7]: 2.46
CLint scaled [6]: 354 mL/min/kg
Compound: CC(=O)NCCSc1nonc1/C(=N/O)N[C@H]1Cc2ccc(F)cc21
